Assay [1] concerns the target PIM1 (Homo sapiens (Human), UniProt P11309). The assay is described as follows: Pim kinase binding activity, Caliper LC3000 microfluidic peptide phosphorylation assay (Example 901). The class given is biochemical. The following applies: 20 pM PIM1, 1 μM FAM-peptide, 10 μM ATP, 90 minutes at room temperature; read-out: PIM1 LC3K (KI). The method, then:
(§1) PIM-1, -2, and -3 enzymes were generated as fusion proteins expressed in bacteria and purified by IMAC column chromatography (Sun, X., Chiu, J. F., and He, Q. Y. (2005) Expert Rev. Proteomics, 2:649-657). A fluorescent-labeled Pim-specific peptide substrate, was custom synthesized by American Peptide Company (Sunnyvale, Calif.). Reaction Buffer contained 10 mM HEPES, pH 7.2, 10 mM MgCl2, 0.01% Tween 20, 2 mM DTT. Termination Buffer contained 190 mM HEPES, pH 7.2, 0.015% Brij-35, 0.2% Coating Reagent 3 (Caliper Life Sciences, Hopkinton, Mass.), 20 mM EDTA. Separation Buffer contained 100 mM HEPES, pH 7.2, 0.015% Brij-35, 0.1% Coating Reagent 3, 1:200 Coating Reagent 8 (Caliper Life Sciences, Hopkinton, Mass.), 10 mM EDTA and 5% DMSO.
(§2) PIM reactions were carried out in a final volume of 10 μL per well in a 384-well plate. A standard enzymatic reaction, initiated by the addition of 5 μL 2×ATP and test compound to 5 μL of 2× enzyme and FAM-peptide, contained 20 pM PIM1, 50 pM PIM2, or 55 pM PIM3, 1 μM FAM-peptide, and 10 μM ATP, in Reaction Buffer. After 90 minutes of incubation at room temperature, the phosphorylation reaction was stopped by the addition of 10 μL Termination Buffer. The product and substrate in each independent reaction were separated on a 12-sipper microfluidic chip (Caliper Life Sciences, Hopkinton, Mass.) run on a Caliper LC3000® (Caliper Life Sciences, Hopkinton, Mass.). The separation of product and substrate was optimized by choosing voltages and pressure using Caliper's Optimizer software (Hopkinton, Mass.). The separation conditions used a downstream voltage of −500V, an upstream voltage of −2150V, and a screening pressure of −1.2 psi. The product and substrate fluorophore were excited at 488 nm and detected at 530 nm. Substrate conversion was calculated from the electropherogram using HTS Well Analyzer software (Caliper Life Sciences, Hopkinton, Mass.). Ki values for the test compound were calculated.

Assay [2] deals with PIM3 (Homo sapiens (Human), UniProt Q86V86). Described as above. In kind it is biochemical. The settings on record: 55 pM PIM3, 1 μM FAM-peptide, 10 μM ATP, 90 minutes at room temperature; read-out: PIM3 LC3K (KI). As to the method: as §1, §2
Assay [3] addresses PIM2 (Homo sapiens (Human), UniProt Q9P1W9). Described as above. In kind it is biochemical. The settings on record: 50 pM PIM2, 1 μM FAM-peptide, 10 μM ATP, 90 minutes at room temperature; read-out: PIM2 LC3K (KI). As to the method:
A fluorescent-labeled Pim-specific peptide substrate, was custom synthesized by American Peptide Company (Sunnyvale, Calif.). Reaction Buffer contained 10 mM HEPES, pH 7.2, 10 mM MgCl2, 0.01% Tween 20, 2 mM DTT. Termination Buffer contained 190 mM HEPES, pH 7.2, 0.015% Brij-35, 0.2% Coating Reagent 3 (Caliper Life Sciences, Hopkinton, Mass.), 20 mM EDTA. Separation Buffer contained 100 mM HEPES, pH 7.2, 0.015% Brij-35, 0.1% Coating Reagent 3, 1:200 Coating Reagent 8 (Caliper Life Sciences, Hopkinton, Mass.), 10 mM EDTA and 5% DMSO.
as §2, with “A standard enzymatic reaction, initiated by the addition of 5 μL 2×ATP and test compound to 5 μL of 2× enzyme and FAM-peptide, contained 20 pM PIM1, 50 pM PIM2, or 55 pM PIM3, 1 μM FAM-peptide, and 10 μM ATP, in Reaction Buffer.” left out, “The product and substrate fluorophore were excited at 488 nm and detected at 530 nm.” left out

Assay [4] has as its system BaF3 PIM1 cells. The assay is described as follows: In vitro cell proliferation potency assay, Cell Titer Glo (Example 902). The class given is cell-based, murine. The settings on record: Mus musculus; BaF3 line transfected with PIM1, incubated overnight; read-out: Prolif BaF3 PIM1 (IC50). The method, then: (§3) BaF3 parental line was obtained from the DSMZ repository. BaF3 lines transfected with PIM 1 or PIM2 were generated. Mouse IL-3 was purchased from R&D Systems. G418 was purchased from Clontech. Media for BaF3 parental line contained RPMI, 10% FBS, 2 mM L-Glutamine, 2 ng/mL mIL-3. Media for BaF3 PIM1 & 2 lines contained RPMI, 10% FBS, 2 mM L-Glutamine, […]. Media for MM1.S (multiple myeloma cells) line contained RPMI, 10% FBS, 2 mM L-Glutamine.
(§4) BaF3, a murine interleukin-3 dependent pro-B cell line, parental cells, BaF3 PIM1 cells, BaF3 PIM2 cells, and MM1.S (multiple myeloma) cells were seeded at 2 k/well, 5 k/well, 5 k/well, and 10 k/well respectively, in a 384-well plate, at 45 μL/well. Test compound was added at 5 μL/well. BaF3 cells (parental and transfected) were incubated overnight, while MM1.S cells were incubated for 72 hours at 37° C., 5% CO2. Cell Titer Glo Reagent (Promega) was added at 50 μL/well, the plates were incubated for 30 minutes, and their luminescence read on an HT Analyst. IC50/EC50 values for the test compound were calculated.

In assay [5] the test system is BaF3 parental cells. The assay is described as above. The class given is cell-based, murine. The following applies: Mus musculus; BaF3 parental line, medium with 2 ng/mL mIL-3, incubated overnight; read-out: Prolif BaF3 IL3 (IC50). The method, then:
as §3, §4

Assay [6] has as its system MM1.S (multiple myeloma) cells. The description is as above. The class given is cell-based. The following applies: Homo sapiens, incubated for 72 hours, read-out: Prolif MM1S ATP (EC50). As to the method: as §3, §4

Chain of PIM2 (Q9P1W9 whole entry): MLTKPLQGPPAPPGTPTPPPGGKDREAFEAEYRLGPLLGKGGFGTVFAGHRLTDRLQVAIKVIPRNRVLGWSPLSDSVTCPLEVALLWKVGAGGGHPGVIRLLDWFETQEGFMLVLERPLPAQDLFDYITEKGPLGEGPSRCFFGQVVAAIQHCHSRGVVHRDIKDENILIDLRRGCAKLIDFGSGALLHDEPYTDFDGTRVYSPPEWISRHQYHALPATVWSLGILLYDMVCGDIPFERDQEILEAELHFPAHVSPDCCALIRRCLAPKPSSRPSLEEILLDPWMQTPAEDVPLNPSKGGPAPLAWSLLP
Chain of PIM1 (P11309 whole entry, the tested form may be a part): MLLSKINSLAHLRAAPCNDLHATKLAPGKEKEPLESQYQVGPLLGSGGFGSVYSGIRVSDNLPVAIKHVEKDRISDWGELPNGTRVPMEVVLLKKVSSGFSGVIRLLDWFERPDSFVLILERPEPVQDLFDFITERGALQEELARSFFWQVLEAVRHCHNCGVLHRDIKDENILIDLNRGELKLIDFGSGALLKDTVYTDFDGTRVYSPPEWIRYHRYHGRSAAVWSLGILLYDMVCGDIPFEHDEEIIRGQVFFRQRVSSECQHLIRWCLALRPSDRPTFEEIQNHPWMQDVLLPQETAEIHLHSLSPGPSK

In the case of `Nc1sc(-c2c(F)cccc2F)nc1C(=O)Nc1cn[nH]c1N1CCC[C@H](N)C1` [Example 103, (S)-5-amino-N-(5-(3-aminopiperidin-1-yl)-1H-pyrazol-4-yl)-2-(2,6-difluorophenyl)thiazole-4-carboxamide], the Ki in assay [1] amounted to 0.0065 µM; in assay [2] it was 0.00489 µM; in assay [3], 0.0551 µM. The half-inhibitory concentration (IC50) in assay [4] was 7.3 µM; in assay [5], 10.6 µM. The half-maximal effective concentration (EC50) in assay [6] worked out at 9.1 µM.

For `Cn1ncc(NC(=O)c2nc(-c3c(F)cccc3F)sc2N)c1N1CCC(N)CC1` [Example 108, 5-amino-N-(5-(4-aminopiperidin-1-yl)-1-methyl-1H-pyrazol-4-yl)-2-(2,6-difluorophenyl)thiazole-4-carboxamide], the IC50 in assay [4] turned out to be 0.615 µM; in assay [5] it was 4.3 µM. In addition, the EC50 in assay [6] amounted to 8.2 µM.

For `Cn1ncc(NC(=O)c2nc(-c3ccccc3F)ccc2N)c1N1CCC(N)CC1` [Example 110, 3-amino-N-(5-(4-aminopiperidin-1-yl)-1-methyl-1H-pyrazol-4-yl)-6-(2-fluorophenyl)picolinamide], the half-inhibitory concentration (IC50) in assay [4] was determined as 1.5 µM; in assay [5] it was 12 µM. For the same compound, in assay [6], the EC50 came out at 16.1 µM.

As for `Cn1ncc(NC(=O)c2nc(-c3ccccc3F)ccc2N)c1N1CCC[C@H](N)C1` [Example 111, (S)-3-amino-N-(5-(3-aminopiperidin-1-yl)-1-methyl-1H-pyrazol-4-yl)-6-(2-fluorophenyl)picolinamide], the IC50 is 4.2 µM in assay [4] and 13.2 µM in assay [5]. Besides, in assay [6], the EC50 stood at 7.1 µM.

Broadly, the Ki is a dissociation constant, usually derived from enzyme kinetics or from competition with a known ligand. As a reminder, the IC50 is the midpoint of a concentration-inhibition curve. In general, EC50 refers to the midpoint of the concentration-response curve.

The values are drawn from patent publication US8669361B2, “Pyrazol-4-yl-heterocyclyl-carboxamide compounds and methods of use” (Genentech, Inc., priority 2010, dated 2014).
